Data from US8466195B2, “Methods and compositions for treating complications of diabetes and vascular diseases using flavones” (Salk Institute for Biological Studies, priority 2009, dated 2013).

What was measured:
[1] = system: Akita mice; experiment: Kidney hypertrophy (kidney weight) in Akita mice; type: in vivo; conditions: fisetin 0.05% in diet for 18 weeks
Method: Male Akita mice were fed control diet or fisetin (0.05%) for 18 weeks beginning at 6 weeks of age. Kidney hypertrophy was assessed by weighing the kidneys. Kidney function was assessed by measuring the albumin/creatinine ratio in the urine. Fisetin reduced diabetes-induced renal hypertrophy and proteinuria. All data are mean±SD of N=5-7/group.

[2] = system: STZ-diabetic rats; experiment: Indices of nerve function in STZ-diabetic rats; type: in vivo, Sprague-Dawley rats; conditions: 25 mg/kg/day fisetin for 8 weeks
Method: Adult female Sprague-Dawley rats were made diabetic with STZ and treated with vehicle or 25 mg/kg/day fisetin for 8 weeks. Large fiber function was tested by measuring nerve conduction velocity and paw withdrawal to touch and small fiber function by paw withdrawal to noxious heat. […] Data are mean±SEM of N=4-8/group.

[3] = target: BSA (Bos taurus, UniProt P02769); experiment: Glycation of BSA by glucose (anti-CML Western blot and fluorescence assay); type: biochemical; conditions: 100 mM glucose, 14 days 37° C., 100 μM fisetin; Western blotting with a-CML and fluorescence assay
BSA, sequence (P02769 25-607): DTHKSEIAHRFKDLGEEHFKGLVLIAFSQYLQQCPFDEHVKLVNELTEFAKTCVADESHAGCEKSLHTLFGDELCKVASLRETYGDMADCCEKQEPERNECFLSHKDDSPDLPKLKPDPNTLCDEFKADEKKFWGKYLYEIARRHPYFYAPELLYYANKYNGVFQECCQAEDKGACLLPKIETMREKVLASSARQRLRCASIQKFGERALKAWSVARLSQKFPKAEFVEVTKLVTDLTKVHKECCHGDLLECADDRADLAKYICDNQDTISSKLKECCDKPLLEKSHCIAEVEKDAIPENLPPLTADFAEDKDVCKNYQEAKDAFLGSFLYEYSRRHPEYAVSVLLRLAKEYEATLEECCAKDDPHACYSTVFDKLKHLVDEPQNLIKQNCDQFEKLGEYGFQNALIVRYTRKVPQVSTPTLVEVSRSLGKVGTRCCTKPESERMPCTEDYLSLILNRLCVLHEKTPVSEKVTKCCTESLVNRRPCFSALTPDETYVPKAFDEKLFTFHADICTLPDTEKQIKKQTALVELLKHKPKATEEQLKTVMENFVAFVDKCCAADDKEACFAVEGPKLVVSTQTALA
Method: In reference to FIG. 1, BSA was incubated with either 100 mM glucose (G) or 100 mM methylglyoxal (MG) for 14 days at 37° C. plus or minus 100 μM fisetin. The BSA was dialyzed vs. PBS run on SDS-PAGE and blotted with anti-carboxymethyl lysine (CML) (a glucose AGE) or anti-MG adducts from Dr. Brownlee. […] In FIG. 1, panel B, anti-MG only reacts with MG treated BSA and also causes protein polymerization. In FIG. 1, panel C, co-incubation with fisetin results in inhibition of glucose glycation in 2 assays, Western blotting with a-CML (BL, hatched bars) and a fluorescence assay for protein glycation (FL, clear bars). In FIG. 1, panel D, fisetin inhibited protein glycation caused by high glucose exposure of human brain microvascular cells. Cells were exposed to either 5 mM (−Glu) or 25 mM (+Glu) glucose for 5 days plus (F) or minus (C) 1 μM fisetin. Cells were then harvested and blotted with either anti-CML or MG antisera.

[4] = system: osteopontin (OPN); experiment: Kidney osteopontin (OPN) in Akita mice (immunoblot); type: in vivo; conditions: fisetin in diet, OPN band normalized to actin
Method: Kidneys were homogenized in phosphate buffered saline containing protease and phosphatase inhibitors. Equal amounts of protein, as determined by the BCA assay (Pierce), were solubilized in SDS-sample buffer containing 0.1 mM Na3VO4 and 1 mM phenylmethylsulfonyl fluoride (PMSF), boiled for 5 min and either analyzed immediately or stored frozen at −70° C. Proteins were separated on 10% SDS-polyacrylamide gels and transferred to nitrocellulose. Equal loading and transfer of the samples was confirmed by staining the nitrocellulose with Ponceau-S. Transfers were blocked for 1 h at room temperature with 5% nonfat milk in TBS/0.1% Tween 20 and then incubated overnight at 4° C. in the primary antibody diluted in 5% BSA in TBS/0.05% Tween 20. The primary antibodies used were: rabbit anti-osteopontin (Millipore) and actin-HRP (Cell Signaling). […]
OPN is a key regulator of the pathophysiological changes associated with diabetic nephropathy (Nicolas et al. Kidney Int. advance online publication, 3 Feb. 2010). […] Kidney samples from 6-7 mice were analyzed and the average intensity of the OPN band normalized to actin is shown in the graph. […] In FIG. 10, the data was analyzed by ANOVA followed by Tukey's post test. *** P<0.001

[5] = system: HT-22 nerve cells; experiment: HT-22 nerve cells exposed to glutamate: MG adducts and viability; type: cell-based; conditions: 5 mM glutamate, 2 μM fisetin
Method: HT-22 nerve cells were exposed to 0.5 mM glutamate and Glo-1 expression monitored at 8 and 24 hrs. In panel (B) of FIG. 2, Fisetin is shown to prevent both cell death and protein glycation. HT-22 cells were exposed to 5 mM glutamate in the presence or absence of 2 μM fisetin. MG adducts were determined by Western blotting 8 hrs after glutamate exposure and viability after 24 hrs. Actin is at the bottom of the blot. In panel (C) of FIG. 2, the Glo-1 inhibitor s-p-bromobenzylglutathione […] is shown to potentiate cell death. HT-22 cells were exposed to 1 mM glutamate plus or minus 10 or 20 μM BBGD.

[6] = system: Akita mice; experiment: Open field test in Akita mice; type: in vivo; conditions: fisetin 0.05% in diet for 18 weeks
Method: The open field test was performed using MED Associates hardware and the Activity Monitor software according to the manufacturer's instructions (MED Associates Inc, St. Albans, Vt., USA). The open-field activity monitoring system contains a subject containment environment (chamber), infrared (I/R) sources and sensors. To perform the test, each mouse was placed in the testing chamber and the activity tracked by the Activity Monitor software for 30 min. The scanning was done every 50 ms. The behavioral parameters derived from the open field test included the following: distance traveled, ambulatory time and counts, stereotypic counts and time, resting time, vertical counts and time, jumping counts and time, average velocity, and ambulatory episodes.
Male Akita mice were fed control diet or fisetin (0.05%) for 18 weeks beginning at 6 weeks of age. Locomotor activity was measured in the open field test. Decreased locomotor activity is an indicator of elevated anxiety which is characteristic of diabetics in poor glycemic control. […] All data are mean±SD of N=5-7/group.

[7] = system: C-reactive protein; experiment: Serum C-reactive protein in Akita mice (Western blot); type: in vivo; conditions: fisetin-rich diet
Method: C-reactive protein in serum was measured by SDS-PAGE and Western blotting analysis of mouse serum using an antibody from R&D.
C-reactive protein is an acute phase protein that increases during chronic inflammation such as is seen in diabetes. Equal amounts of serum from wild type, wild type+fisetin, Akita and Akita+fisetin mice were analyzed by SDS-PAGE and immunoblotting with an antibody to C-reactive protein. Samples from 6-7 mice were analyzed and the average intensity of the C-reactive protein band determined. The data were analyzed by ANOVA followed by Tukey's post test. *** P<0.001.

[8] = system: STZ-diabetic rats; experiment: Kidney function (urine albumin/creatinine ratio) in STZ-diabetic rats; type: in vivo, Sprague-Dawley rats; conditions: 25 mg/kg/day fisetin; 6 and 8 weeks after induction of diabetes
Method: Urine albumin concentration was determined by competitive enzyme-linked immunoadsorbent assay using an Albuwell M kit (Exocell, Philadelphia, Pa.). Urine creatinine concentration was determined by Jaffe's reaction of alkaline picrate with creatinine using a Creatinine Companion kit (Exocell). Results are expressed as the urine albumin-to-creatinine ratio (micrograms per milligram).
Adult female Sprague-Dawley rats were made diabetic with STZ and treated with vehicle or 25 mg/kg/day fisetin. Kidney function was assessed by measuring the albumin/creatinine ratio in the urine at 6 and 8 weeks following induction of diabetes. Fisetin reduced diabetes-induced proteinuria. Data are mean±SEM of N=7-8/group.

SMILES: O=c1c(O)c(-c2ccc(O)c(O)c2)oc2cc(O)ccc12 [fisetin, 2-(3,4-dihydroxyphenyl)-3,7-dihydroxychromen-4-one]
- diabetes-induced renal hypertrophy (kidney weight) [1]: greatly reduced
- diabetes-induced renal hypertrophy (kidney weight) ([1]; listed as Fisetin): reduced
- diabetes-induced SNCV slowing [2]: ameliorated
- severity of diabetes [2]: did not alter
- tactile allodynia (paw withdrawal to touch) [2]: ameliorated
- thermal hyperalgesia (paw withdrawal to noxious heat) [2]: ameliorated
- glucose glycation of BSA [3]: inhibition
- diabetes-dependent upregulation of osteopontin (OPN) in kidney [4]: Prevented
- protein glycation (MG adducts) ([5]; Western blotting 8 hrs after glutamate): prevent
- cell death ([5]; viability after 24 hrs): prevent
- locomotor activity in the open field test (distance traveled, ambulatory episodes) [6]: restored to near normal values
- locomotor activity in the open field test (distance traveled, ambulatory episodes) ([6]; listed as Fisetin): restored locomotor activity to nearly control levels
- diabetes-induced increase in serum C-reactive protein [7]: largely prevented
- diabetes-induced proteinuria (urine albumin/creatinine ratio) [8]: reduced
